Laboratory results: patent publication US7326717B2, “Pyrimidine n-oxide compounds for stimulating the growth of keratin fibers and/or reducing loss thereof” (L'Oreal, priority 1930, dated 2008)

Columns and labels:
[1] = system: inducible NO-synthase (NOS2); assay: Modulation of the induction of NOS2 on normal human keratinocytes (NO-donor activity, nitrite/nitrate measurement); type: cell-based; settings: for % inhibition: nitrites and nitrates measured; for NO-donating effect: conclusion from the table
Description: The activity of compounds A and A′ on inducible NO-synthase was evaluated in the test described by Heck et al. (J. B. C., Vol. 267, No. 30, 21277-21280, 25 Oct. 1992), test of “Modulation of the induction of NOS2 (Inducible Nitric Oxide Synthase) on normal human keratinocytes”. The aim of this test is to evaluate the final nitrate and nitrite concentration, after stimulation of NO-synthase 2 or application of an NO donor; it is performed by comparison with the stimulation of cytokine-inducible NO-synthase. The final nitrate and nitrite concentration corresponds to the concentration of NO released.
The test is performed on a culture of normal human keratinocytes obtained from samples. The induction of inducible NO-synthase (NOS2) was brought about by the addition of a combination of several cytokines to the culture medium. The test products were applied at three concentrations ranging from […] to 1000 μM.
The following controls were introduced into the test: • A: Positive control (induction of the enzyme on stimulated cells): mixtures of interferon-γ (1000 μ/ml) and of interleukin 1-β (100 μ/ml) corresponding to […]; • B: Basal control of the unstimulated cells (without cytokines), corresponding to […].
To determine the activity of the test products, the amount of stable NO reaction products (nitrites and nitrates) is measured using the “Nitric Colorimetric Assay” kit sold by the company Boehringer under the reference 1756.28.
The compounds were tested at concentrations of 100 μM, 500 μM and 1000 μM in ethanol.

type L calcium-channel = settings: read-out: IC50Ca2+ (concentration that inhibits 50% of the release of Ca2+); cited from earlier work
[2] = system: lysyl-hydroxylase messenger RNA; assay: Inhibition of the expression of LH (RT-PCR) in normal human dermal fibroblasts; type: cell-based; settings: for inhibition of the expression of lysyl-hydroxylase messenger RNA: human fibroblasts in culture, compound 1′ at 10 μM; for LH/actine ratio: percentage of expression of LH over β-Actin internal standard; for LH/actine ratio / LH/collagen ratio: control = 100, NHDF treated 6 hours; for LH/collagen ratio: percentage of expression of LH relative to collagen messenger RNA
Description: Normal human dermal fibroblasts (NHDF) are precultured at high density for 48 hours in MEM199 medium (Gibco) supplemented with 1% foetal calf serum and then treated or not treated with compound 1′ or 1 for 6 hours. The cell carpets are then washed with phosphate-buffered saline (PBS) and then frozen in Tri-reagent medium (Sigma). The total RNAs obtained are extracted with Tri-reagent (Sigma) according to the supplier's protocol. A further extraction is performed using chloroform and the RNAs are then precipitated from isopropanol. After removal of the contaminating traces of DNA by treatment with the DNA-free system (Ambion), a reverse transcription of the RNAs into complementary DNA is performed in the presence of oligo dT and the enzyme superscript II (Gibco).
A pair of primers allowing the amplification of specific LH fragments (516 bp; Mahéet al., 1996, Skin Pharmacol. 9, 177-183) and of specific primers of the sequence of collagen I (420 pb) and β-Actin (500 bp, internal reaction standard) were used for the polymerization chain reaction (PCR) with the PCR Supermix system (Gibco) under the following conditions: 94° C. for 2 minutes and then 25 times (95° C.-1 min, 55° C.-1 min, 72° C.-2 min), the chain reaction being terminated by an elongation cycle of 7 minutes at 72° C.
The amplified fragments are then analysed by electrophoresis on agarose gel (1.5%) in the presence of ethidium bromide. The images were captured on GelPrint 2000i (Biophotonics Corp); the densitometric analyses were obtained using the One D-Scan software (Scanalytics).
The results are expressed as a percentage of expression of LH over the β-Actin internal standard (LH/actine) or relative to the collagen messenger RNA (LH/collagen). A reduction of one or of the two percentages indicates a transcriptional inhibition of the relative expression of lysyl hydroxylase and, by analogy, with the molecule 2-4 DPO, (Mahéet al. 1996, Skin Pharmacol. 9. 177-183) a possible use for limiting the abnormal crosslinking of collagen in alopecia.

lysyl-hydroxylase = settings: described in WO 96/09048; cited from earlier work
[3] = 100 μM in ethanol, 100 = cytokine-stimulated control A, 0 = unstimulated control B

Row | SMILES | % inhibition [1, 3] [%] | NO-donating effect [1] | inhibition of the expression of lysyl-hydroxylase messenger RNA [2] | LH/actine ratio [2] [%] | LH/collagen ratio [2] [%] | also measured
1 | Nc1nccc(NCCO[N+](=O)[O-])[n+]1[O-] [Compound 2] | 38.77 | have an NO-donating effect |  |  |  | 
2 | COc1ccc(CCN(C)CCCC(C#N)(c2ccc(OC)c(OC)c2)C(C)C)cc1OC (centres unmarked) [verapamil] |  |  |  |  |  | IC50 (type L calcium-channel): 38 nM
3 | Nc1nccc(NCCCCO)[n+]1[O-] [Compound 1′] |  |  | −24% to −36% | 64 | 76 | 
4 | Nc1nccc(NCCCCO[N+](=O)[O-])[n+]1[O-] [Compound 1] | 0 | have an NO-donating effect | no inhibitory activity | 123 | 133 | % inhibition ([1]; 500 μM in ethanol, 100 = control A, 0 = control B, NE means no effect): 18.23%
5 | Nc1cc[n+]([O-])c(N)n1 [aminexil, 2,4-diaminopyrimidine N-oxide] |  |  |  |  |  | inhibitory activity on the expression of lysyl-hydroxylase (lysyl-hydroxylase): has inhibitory activity on the expression of lysyl-hydroxylase
6 | Nc1nccc(NCCCO[N+](=O)[O-])[n+]1[O-] [Compound 3] |  | have an NO-donating effect |  |  |  | 
